Data from publication PMC5438364, “A broad-spectrum bactericidal lipopeptide with anti-biofilm properties” (Scientific Reports, 2017).
Where a SMILES comes first, the peptide text is derived from it. [ ]: non-standard residue; d: D form. The star is where a group is joined. Myristoyl = CCCCCCCCCCCCCC(=O)*; 12Ado = NCCCCCCCCCCCC(=O)O

Key:
[1] = test system: S. aureus 29213; assay type: cell-based, Staphylococcus aureus
Method: (§1) Minimal inhibitory concentration (MIC) was determined using the microdilution assay. Mid-log-phase bacteria at 5 × 10^5 CFU/ml were incubated in a 96-well plate with serial two-fold dilutions of the tested compound for 18–24 hr at 37 °C (final volume of 200 µl). O.D. at 620 nm was measured (Synergy HT, BioTek Instruments, Winooski, VT, USA), and the MIC was determined as the lowest concentration for which no increase in O.D. was detected.

[2] = test system: Klebsiella; assay type: cell-based
Text: (§2) Gram-negative bacteria tested were: ATCC strains Escherichia coli 25922, 43894, Pseudomonas aeruginosa 27853, 9027, Acinetobacter baumannii 19606, A. caloaceticus 31299, Salmonella Typhimurium 14028, Fusobacterium nucleatum 23726, Porphyromonas gingivalis 53977, clinical isolates E. coli 14182, 14384, U-16327, U-16329, P. aeruginosa 1278, Klebsiella pneumoniae 1287, K2–224, C2, A. baumannii 1279, 1280, 1281, F. nucleatum PK 1594, the engineered E. coli ML-35p and the isogenic K-12 pair AG100, AG100a (ΔacrAB). Dental related bacteria (generous gift of Prof. Doron Steinberg and Gilad Bachrach from the Hebrew University of Jerusalem) appear in bold characters.
(§3) Staphylococci, Bacilli, Escherichia, Pseudomonas, Acinetobacter, Salmonella and Klebsiella species were grown in Luria Bertani broth (LB; 5 gr/l NaCl, 5 gr/l yeast extract, 10 gr/l tryptone). Enterococci and E. coli ML-35p were grown in Tryptic Soy Broth (TSB). Listeria and Streptococci were grown in Brain Heart Infusion (BHI). All bacteria were grown over-night at 37 °C with shaking. S. mutans 35668 plated on BHI agar for enumeration was grown for 48 hr. S. mutans UA159 was grown in 5% CO2 enriched atmosphere. Fusobacterium and Porphyromonas were grown in Wilkins-Chalgren growth medium and an anaerobic atmosphere.
as §1

[3] = test system: Gram-negative bacteria (GNB); assay type: cell-based; conditions: 24 GNB strains (seven species)
Text: as §2, §3, §1

[4] = test system: Pseudomonas; assay type: cell-based; conditions: 3 strains; microdilution, LB, 18–24 hr, 37 °C; average of at least 2 independent experiments in duplicate
Text: as §2, §3, §1

[5] = Hydrophobicity by C18 RP-HPLC elution; assay type: physicochemical; conditions: chromatographic, RP-HPLC C18 (Vydac), flow 2 ml/min, linear acetonitrile gradient 1%/min
Method: OAKs were synthesized in-house (433 A Peptide Synthesizer; Applied Biosystems, Foster City, CA, USA) by the solid-phase method using 9-fluorenylmethyloxycarbonyl (Fmoc) active-ester chemistry on 4-methylbenzhydrylamine (MBHA) resin. OAKs were then deprotected and cleaved from the resin using trifluoroacetic acid:H2O (95:5) and purified to >95% chromatographic homogeneity by reverse phase high performance liquid chromatography (RP-HPLC) using C18 column (Vydac), a flow rate of 2 ml/min and a linear acetonitrile gradient of 1%/min (Alliance; Waters, Milford, MA, USA). Peaks identity was verified by mass-spectrometry (Xevo G2 Tof; Waters, Milford, MA, USA). Purified OAKs were then lyophilized and kept as dry powder at −20 °C.

[6] = test system: Fusobacterium; assay type: cell-based, Fusobacterium nucleatum; conditions: 48 h
Text: as §2
as §3, with “S. mutans UA159 was grown in 5% CO2 enriched atmosphere. Fusobacterium and Porphyromonas were grown in Wilkins-Chalgren growth medium and an anaerobic atmosphere.” left out
(§4) Minimal inhibitory concentration (MIC) was determined using the microdilution assay. […] O.D. at 620 nm was measured (Synergy HT, BioTek Instruments, Winooski, VT, USA), and the MIC was determined as the lowest concentration for which no increase in O.D. was detected.

[7] = test system: E. coli AG100A (ΔacrAB); assay type: cell-based, Escherichia coli; conditions: efflux deletion-mutant AG100A
Text: as §2, §1

[8] = test system: E. coli AG100; assay type: cell-based, Escherichia coli; conditions: wild type AG100
Text: as §2, §1

[9] = test system: E. coli; assay type: cell-based, Escherichia coli; conditions: 48 h
Method: as §3, §4

[10] = test system: S. mutans ATCC 35668 biofilm; test: Anti-biofilm activity on pre-formed biofilm; assay type: cell-based, Streptococcus mutans; conditions: ≥0.5 mM, within one hour of exposure, inoculum 10^9 CFU/ml
Method: Anti-biofilm activity was evaluated against established biofilms in 96-well plates as follows. 200 µl of mid-log-phase S. mutans 35668 at 5 × 10^5 CFU/ml in BHI containing 2% sucrose were placed in each well, and plates were incubated for 24 hr at 37 °C without shaking. Unattached cells were removed by decanting the plates and biofilms were washed three times with milliQ water. Solutions of the tested compounds were placed on the biofilms for up to 3 hr at 37 °C without shaking. Plates were decanted in 0.5 hr intervals and biofilms were washed three times with milliQ water to remove any compound residues. Biofilms were scraped from the bottom of the wells, suspended in BHI and sonicated for 5 min in a sonication bath, subjected to serial 10-fold dilutions in saline and plated on BHI agar for enumeration.

[11] = test system: S. mutans ATCC 35668; test: Bactericidal kinetics (time-kill); assay type: cell-based, Streptococcus mutans
Method: Bactericidal kinetics was assessed by incubating 5 × 10^5 CFU/ml of mid-log-phase bacteria with the OAK for 3 hr at 37 °C with shaking. Aliquots were taken at t = 0, 0.5, 1, 2 and 3 hr, subjected to serial 10-fold dilutions in saline (NaCl = 0.85%) and plated for enumeration after 24–48 hr incubation at 37 °C.

## CCCCCCCCCCCCCC(=O)N[C@@H](CCCCN)C(=O)N[C@@H](CCCCN)C(=O)NCCCCCCCCCCCC(=O)N[C@@H](CCCCN)C(N)=O [C14KKc12K] (Myristoyl-KK[12Ado]K-NH2)
[1]
  MIC: 3 µM
[2]
  MIC range: 3.12 to 12.5 µM
[3]
  MIC50: 6 µM
[4]
  MIC range: 6.25 to 12.5 µM
[5]
  H, hydrophobicity, defined as % acetonitrile eluent in C18 HPLC column: 54%
[6]
  MIC range: 6.25 µM
[7]
  MIC: 3 µM
[8]
  MIC: 3 µM
[9]
  MIC E.c.: 3.12 µM
[10]
  killing of the initial inoculum in preformed biofilm: > 99%
[11]; time-kill kinetics in BHI
  bactericidal concentration: 1.56 µM
[11]; within 2 hours exposure to 1.56 µM, 5 × 10^5 CFU/ml, 37 °C
  reduction of viability: ~ 2 log units
